Assay results published in PMC4168161, “A novel approach for the discovery of chemically diverse anti-malarial compounds targeting the Plasmodium falciparum Coenzyme A synthesis pathway” (Malaria Journal, 2014).
Several values for one entry are separate records, joined by “and”; a condition that tells them apart may be missing. Identical values can stand only once.

Key:
[1] = test system: P. falciparum CoA synthesis pathway; experiment: Coenzyme A chemical rescue assay on P. falciparum; format: cell-based, Plasmodium falciparum; details: for antiplasmodial activity of control compounds upon CoA supplementation / IC50 shift upon CoA supplementation: eight-point dose response, n = 2; for antiplasmodial activity of control compounds upon CoA supplementation: fixed CoA; for CoA rescue (relative parasite number, % of untreated control): at 2 μM compound, with CoA supplementation; for IC50 shift upon CoA supplementation: fixed CoA (0.8-2 mM)
Procedure: The well-established P. falciparum imaging assay was modified to allow assessment of chemical rescue with CoA. In brief, sorbitol (5% w/v) synchronization was performed twice, approximately 8 hr apart, on each synchronization day for two consecutive ring cycles, i.e., on day 1 and 3 of assay preparation. On day 2 the culture was split to approximately 2% trophozoite parasitaemia. On day 4 the culture was split to 1-1.5% trophozoite parasitaemia, which yielded approximately 8% ring parasitaemia after 48 hr (on day 5, i.e., the day of the assay set-up). Compound stocks (10 mM in 100% DMSO) were diluted 1:25 in sterile water, less than 24 hr prior to use. An additional 1:10 dilution was performed, resulting in a 1:250 overall compound dilution and a final DMSO concentration of 0.4%. For initial screening, compounds were tested at a final 2 μM concentration. […] The known P. falciparum CoA synthesis inhibitor, panthenol, was prepared as a 100 mM solution in 4% DMSO. The final concentration of the dose response curve of panthenol started at 10 mM and was serially diluted down to 100 nM. CoA was dissolved in water. […] Five μl of the 1:25 diluted test compound or control solutions were added to 384-well CellCarrier imaging plates (PerkinElmer). For the chemical rescue, 5 μl of CoA solution were added to ‘rescue’ wells and 5 μl water to all control and reference wells, respectively. Parasite culture was added to a final concentration of 1% parasitaemia (% P) and 0.3% haematocrit (% H). Plates were incubated for 72 hr at 37°C, 5% CO2 and 95% humidity. On day 8 the permeabilization and nuclear staining buffer was prepared in PBS containing 10 μg/ml saponin, 0.01% triton X, 5 mM EDTA (all: Sigma) and 0.5 μg/ml 4′,6-diamidino-2-phenylindole (DAPI; Life Technologies). The plates were left for at least 4 hr (typically overnight), before confocal imaging on an Opera™ High Content Screening Platform (PerkinElmer) at 405 nm excitation with a 20x water objective. Automated primary image analysis was performed concurrent with the imaging process, utilizing an Acapella® software (PerkinElmer) script to determine the number of parasites based on object size and fluorescence intensity. Determination of the % growth compared to controls (2 μM artemisinin as positive and 0.4% DMSO as negative control) was performed in Microsoft® Excel 2010. Statistical analysis including IC50 determination and graphical output was performed in GraphPad Prism® 5 using non-linear regression variable slope curve fitting. Cell-based high throughput screening (HTS) entails the distinct benefit that positive hits have already proven effective against the live parasite within its natural host erythrocyte environment. Modifications of an image-based assay were undertaken to identify compounds that interfere with the P. falciparum CoA pathway. The modification involved a chemical rescue approach adapted from a similar method used to investigate apicoplast function. The principle idea of the chemical rescue approach is that supplementation of an unbranched pathway’s end product – in this case CoA - should abrogate, or at least alleviate, negative growth effects of compounds inhibiting any step in the pathway. […] To identify new potential CoA synthesis inhibitors, the CoA chemical rescue approach was used to screen 144 compounds with known antiplasmodial activity identified by HTS in the Avery laboratory, in addition to the MMV malaria box. […] Compounds which rescued growth to at least 50% of control values and two-fold difference compared to treatment alone, were regarded as partial rescue hits.

[2] = test system: Plasmodium falciparum strain 3D7; experiment: Plasmodium falciparum growth inhibition imaging assay; format: cell-based; details: for P. falciparum growth: 3D7, dose response; for P. falciparum growth / IC50: n = 3; for parasite growth inhibition: 2 μM; for IC50: P. falciparum 3D7, 72 hr
Procedure: In vitro parasite culture was maintained in RPMI with 10 mM Hepes (Life Technologies), 50 μg/ml hypoxanthine (Sigma) and 5 mg/ml AlbuMAX II® (Life Technologies). Human O + erythrocytes were obtained from the Australian Red Cross Blood Service (Agreement No: 13-04QLD-09). The parasites were maintained at 2-8% parasitaemia (% P) at 5% haematocrit (% H), incubated at 37°C, 5% CO2, 5%O2 and 90% N2 and 95% humidity. The well-established P. falciparum imaging assay was modified to allow assessment of chemical rescue with CoA. In brief, sorbitol (5% w/v) synchronization was performed twice, approximately 8 hr apart, on each synchronization day for two consecutive ring cycles, i.e., on day 1 and 3 of assay preparation. On day 2 the culture was split to approximately 2% trophozoite parasitaemia. On day 4 the culture was split to 1-1.5% trophozoite parasitaemia, which yielded approximately 8% ring parasitaemia after 48 hr (on day 5, i.e., the day of the assay set-up). Compound stocks (10 mM in 100% DMSO) were diluted 1:25 in sterile water, less than 24 hr prior to use. An additional 1:10 dilution was performed, resulting in a 1:250 overall compound dilution and a final DMSO concentration of 0.4%. For initial screening, compounds were tested at a final 2 μM concentration. For dose response curves of the active compounds, a semi-logarithmic serial dilution (containing three data points per log) was prepared at 40 μM top concentration for test compounds and 2 μM for the positive control, artemisinin. The known P. falciparum CoA synthesis inhibitor, panthenol, was prepared as a 100 mM solution in 4% DMSO. The final concentration of the dose response curve of panthenol started at 10 mM and was serially diluted down to 100 nM. CoA was dissolved in water. The final CoA concentration for optimal rescue results was determined for each CoA batch and ranged between 0.8-2 mM. Five μl of the 1:25 diluted test compound or control solutions were added to 384-well CellCarrier imaging plates (PerkinElmer). For the chemical rescue, 5 μl of CoA solution were added to ‘rescue’ wells and 5 μl water to all control and reference wells, respectively. Parasite culture was added to a final concentration of 1% parasitaemia (% P) and 0.3% haematocrit (% H). Plates were incubated for 72 hr at 37°C, 5% CO2 and 95% humidity. On day 8 the permeabilization and nuclear staining buffer was prepared in PBS containing 10 μg/ml saponin, 0.01% triton X, 5 mM EDTA (all: Sigma) and 0.5 μg/ml 4′,6-diamidino-2-phenylindole (DAPI; Life Technologies). The plates were left for at least 4 hr (typically overnight), before confocal imaging on an Opera™ High Content Screening Platform (PerkinElmer) at 405 nm excitation with a 20x water objective. Automated primary image analysis was performed concurrent with the imaging process, utilizing an Acapella® software (PerkinElmer) script to determine the number of parasites based on object size and fluorescence intensity. Determination of the % growth compared to controls (2 μM artemisinin as positive and 0.4% DMSO as negative control) was performed in Microsoft® Excel 2010. Statistical analysis including IC50 determination and graphical output was performed in GraphPad Prism® 5 using non-linear regression variable slope curve fitting.

[3] = test system: HEK293 cells; experiment: HEK293 viability assay (resazurin); format: cell-based, human; details: for IC50: HEK293, 72 hr, top concentration 40 μM, n = 3
Procedure: (§1) To assess cytotoxicity of compounds in dose response, a resazurin-based assay was utilized to determine cell viability. In brief, HEK293 cells were grown in DMEM medium (Life Technologies) containing 10% foetal calf serum (FCS; Gibco). Cells were trypsinized, counted and seeded at 2,000 cells per well in 45 μl media into TC-treated 384-well plates (Falcon) and left to adhere overnight at 37°C, 5% CO2 and 95% humidity.
(§2) Test compounds were prepared as described above, to give a top final test concentration of 40 μM, 0.4% DMSO. Plates were incubated for 72 hr at 37°C, 5% CO2 and 95% humidity, then the media was removed and replaced by 35 μl of 44 μM resazurin in DMEM without FCS. The plates were incubated for another 4-6 hr at 37°C, 5% CO2 and 95% humidity before reading on an EnVision® Plate Reader (PerkinElmer) using fluorescence excitation/emission settings of 530 nm/595 nm. Determination of the% growth compared to controls (40 μM puromycin as positive and 0.4% DMSO as negative control) was performed in Microsoft® Excel 2010. Statistical analysis including IC50 determination and graphical output was performed in GraphPad Prism® 5 using nonlinear regression variable slope curve fitting.

[4] = test system: HEK293 cells; experiment: CoA chemical rescue on HEK293 cells; format: cell-based, human; details: dose response with and without CoA, n = 2
Procedure: as §1
as §2, with “Plates” for “Test compounds were prepared as described above, to give a top final test concentration of 40 μM, 0.4% DMSO. Plates”

Compound: CCc1nc(N)nc(N)c1-c1ccc(Cl)cc1 [pyrimethamine, reference compound]
- antiplasmodial activity of control compounds upon CoA supplementation [1]: not reduced by CoA supplementation

Compound: Cc1ccc(C(C)C)c(OCc2nc3ccccc3n2C)c1 [Amb1541406]
- inhibition of P. falciparum 3D7 ([2]; at 40 μM): 85% inhibition at 40 μM
- IC50 [3]: > 40 µM
- CoA rescue (relative parasite number, % of untreated control) [1]: 80% rescue at 2 μM
- IC50 shift upon CoA supplementation [1]: 1.5 times

Compound: CC(C)(CO)C(O)C(=O)NCCCO (stereo not shown) [Panthenol, panthenol, reference compound]
- P. falciparum growth [2]: dose-dependent P. falciparum growth inhibitor
- cytotoxicity against HEK293 cells ([3]; at 40 μM): cytotoxic effect
- CoA rescue of growth inhibitory effect ([1]; CoA supplementation between 1 and 2 mM): fully rescued
- antiplasmodial activity of control compounds upon CoA supplementation [1]: counteracted by CoA
- cytotoxic effect on HEK293 cells upon CoA addition [4]: completely negate

Compound: CC(C)(COP(=O)(O)OP(=O)(O)OC[C@H]1O[C@@H](n2cnc3c(N)ncnc32)[C@H](O)[C@@H]1OP(=O)(O)O)[C@@H](O)C(=O)NCCC(=O)NCCS [CoA, Coenzyme A]
- P. falciparum growth [2]: not significantly altered

Compound: OC1CCCCC1C1(NC(=S)Nc2ccccc2)CCCCC1 (stereo not shown) [Amb2368822/(MMV665980)]
- parasite growth inhibition ([2]; MMV malaria box screen): 27%
- parasite growth inhibition ([2]; original single dose screen, focussed compound library plate): 66%
- parasite growth inhibition ([2]; retested twice from freshly dissolved solid): 98% and 90%
- compound stability (inferred from lower activity of stored stock solution) ([2]; 100% DMSO stock at -20°C): potentially unstable
- SI (selectivity index) ([2]; HEK293 IC50 value divided by P. falciparum IC50 value): > 6.3
- IC50 [2]: 6.31 µM
- IC50 ([2]; listed as Amb2368822): 6.3 µM
- IC50 [3]: > 40 µM
- CoA rescue (relative parasite number, % of untreated control) [1]: 80% rescue at 2 μM
- IC50 shift upon CoA supplementation [1]: more than doubled

Compound: COc1ccc(C[C@H](N)C(=O)N[C@H]2[C@@H](O)[C@H](n3cnc4c(N(C)C)ncnc43)O[C@@H]2CO)cc1 [puromycin, reference compound]
- cytotoxic effect on HEK293 cells upon CoA addition [4]: no impact

Compound: C[C@@H]1CC[C@H]2[C@@H](C)C(=O)O[C@@H]3O[C@@]4(C)CC[C@@H]1[C@]32OO4 [artemisinin, reference compound]
- antiplasmodial activity of control compounds upon CoA supplementation [1]: not reduced by CoA supplementation

Compound: CC(=O)C1=C(c2ccccc2)C(=O)c2ccccc2C1=O [Amb4317088]
- IC50 [2]: 1.23 µM
- IC50 [3]: 2.33 µM
- CoA rescue (relative parasite number, % of untreated control) [1]: 80% rescue at 2 μM
- IC50 shift upon CoA supplementation [1]: more than doubled
- cytotoxic effect on HEK293 cells upon CoA addition [4]: reduced upon CoA addition
